Results from paper PMC7745125 (Science (New York, N.y.), 2019).

How the values were obtained:
[1] = target: T1, tyrosine decarboxylase (TyrDC) (Enterococcus faecalis, UniProt P0DTQ4); assay: enzyme kinetics of TyrDC in vitro; format: biochemical
T1 sequence (P0DTQ4 1-620): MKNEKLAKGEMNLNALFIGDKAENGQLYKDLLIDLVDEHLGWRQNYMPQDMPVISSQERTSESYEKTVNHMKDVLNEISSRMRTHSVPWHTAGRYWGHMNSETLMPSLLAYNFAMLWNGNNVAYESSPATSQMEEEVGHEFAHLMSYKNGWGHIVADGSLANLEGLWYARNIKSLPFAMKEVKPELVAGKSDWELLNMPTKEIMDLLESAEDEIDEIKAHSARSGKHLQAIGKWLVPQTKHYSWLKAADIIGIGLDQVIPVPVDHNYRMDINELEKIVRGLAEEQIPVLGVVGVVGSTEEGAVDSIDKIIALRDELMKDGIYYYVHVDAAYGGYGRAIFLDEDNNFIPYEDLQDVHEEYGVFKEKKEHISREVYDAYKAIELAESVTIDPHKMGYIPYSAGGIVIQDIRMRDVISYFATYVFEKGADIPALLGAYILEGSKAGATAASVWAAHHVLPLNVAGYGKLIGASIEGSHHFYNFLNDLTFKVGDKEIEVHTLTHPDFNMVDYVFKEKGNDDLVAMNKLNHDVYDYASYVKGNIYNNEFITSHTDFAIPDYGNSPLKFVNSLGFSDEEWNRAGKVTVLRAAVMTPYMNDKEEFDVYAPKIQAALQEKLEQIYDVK

[2] = target: T1, tyrosine decarboxylase (TyrDC)

## N[C@@H](Cc1ccc(O)cc1)C(=O)O [L-tyrosine]
[1]
  enzyme kinetics of TyrDC in vitro: In vitro characterization of TyrDC revealed a fivefold higher catalytic efficiency toward L-tyrosine compared with L-dopa

## N[C@@H](Cc1ccc(O)c(O)c1)C(=O)O [L-dopa]
[2]
  Km: 1.5 mM
